Experimental data reported in PubChem BioAssay AID330 (DTP/NCI, 2004).
“And” between values parts separate entries of the source, which are not always exact repeats. Equal entries are not always repeated. Toxic doses and inconclusive results are not listed. Peptide text beside a SMILES is read from it.

System: P388 leukemia ip, CD2F1 mice, survival T/C
Experiment: NCI In Vivo Anticancer Drug Screen. Data for tumor model P388 Leukemia (intraperitoneal) in CD2F1 (CDF1) mice
Details: endpoint: median survival time, higher = longer survival
Method in brief: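 Mice carrying the transplanted tumor received test compound or vehicle. Survival was recorded in each group, and the value is the treated-group measurement divided by that of the vehicle-treated control group.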

[1] = dose: 50.0 mg/kg/injection, schedule: Q01DX009 (ip), vehicle: Klucel (hydroxypropylcellulose) (HPC)
[2] = dose: 100.0 mg/kg/injection, schedule: Q01DX009 (ip), vehicle: Klucel (hydroxypropylcellulose) (HPC)
[3] = dose: 200.0 mg/kg/injection, schedule: Q01DX009 (ip), vehicle: Klucel (hydroxypropylcellulose) (HPC)
[4] = dose: 60.0 mg/kg/injection, schedule: Q01DX005 (ip), vehicle: saline with Tween-80
[5] = dose: 120.0 mg/kg/injection, schedule: Q01DX005 (ip), vehicle: saline with Tween-80
[6] = dose: 240.0 mg/kg/injection, schedule: Q01DX005 (ip), vehicle: saline with Tween-80
[7] = dose: 100.0 mg/kg/injection, schedule: Q01DX009 (ip), vehicle: saline with Tween-80
[8] = dose: 50.0 mg/kg/injection, schedule: Q01DX009 (ip), vehicle: saline
[9] = dose: 100.0 mg/kg/injection, schedule: Q01DX009 (ip), vehicle: saline
[10] = dose: 200.0 mg/kg/injection, schedule: Q01DX009 (ip), vehicle: saline
[11] = dose: 100.0 mg/kg/injection, schedule: Q01DX001 (ip), vehicle: saline with Tween-80
[12] = dose: 60.0 mg/kg/injection, schedule: Q01DX005 (ip), vehicle: Klucel (hydroxypropylcellulose) (HPC)
[13] = dose: 120.0 mg/kg/injection, schedule: Q01DX005 (ip), vehicle: Klucel (hydroxypropylcellulose) (HPC)
[14] = dose: 50.0 mg/kg/injection, schedule: Q01DX009 (ip), vehicle: saline with Tween-80
[15] = dose: 100.0 mg/kg/injection, schedule: Q01DX005 (ip), vehicle: saline

With `CC(C)CC(NC(=O)C(N)Cc1c[nH]c2ccccc12)C(N)=O` (stereo not drawn) (H-Trp-Leu-NH2; configuration not given here) the T/C (dose: 200.0 mg/kg/injection, schedule: Q04DX003 (ip), vehicle: saline) was 95 % of control and the T/C (dose: 400.0 mg/kg/injection, schedule: Q04DX003 (ip), vehicle: saline) was 106 % of control.

For `CC1CC(C)NC(N=S(=O)(O)c2ccc(N)cc2)[N-]1.[Ag+]` (configuration not stated), the T/C [1] was 106 % of control, the T/C [2] was 100 % of control and the T/C [3] was 94 % of control.

For `CCC(c1ccc(C(C)=O)c(O)c1)C(CC)c1ccc(C(C)=O)c(O)c1` (configuration not stated), the T/C [4] was 97 % of control, the T/C [5] was 90 % of control and the T/C [6] was 88 % of control.

For `COc1ccc(Cc2nncc3ccccc23)cc1OC`, the T/C (dose: 6.25 mg/kg/injection, schedule: Q01DX009 (ip), vehicle: saline with Tween-80) was 107 % of control, the T/C (dose: 12.5 mg/kg/injection, schedule: Q01DX009 (ip), vehicle: saline with Tween-80) was 107 % of control and the T/C (dose: 25.0 mg/kg/injection, schedule: Q01DX009 (ip), vehicle: saline with Tween-80) was 105 % of control. The T/C [7] was 95 % of control and the T/C (dose: 200.0 mg/kg/injection, schedule: Q01DX009 (ip), vehicle: saline with Tween-80) was 104 % of control.

For `CCOP(=O)(OCC)C(C)OC` (configuration not stated), the T/C [8] was 100 % of control, the T/C [9] was 100 % of control and the T/C [10] was 106 % of control. For the same compound, the T/C (dose: 400.0 mg/kg/injection, schedule: Q01DX009 (ip), vehicle: saline) was 100 % of control.

In the case of `CNC(=O)C(C(=O)NC)n1cnc(C(=O)OC)c1O`, the T/C (dose: 60.0 mg/kg/injection, schedule: Q01DX005 (ip), vehicle: water) is reported as 108 % of control, the T/C (dose: 120.0 mg/kg/injection, schedule: Q01DX005 (ip), vehicle: water) is reported as 107 % of control and the T/C (dose: 240.0 mg/kg/injection, schedule: Q01DX005 (ip), vehicle: water) is reported as 107 % of control.

For `C[N+]1(C2CCCCC2c2cccc(O)c2)CCCC1` (configuration not stated), the T/C (dose: 0.39 mg/kg/injection, schedule: Q01DX009 (ip), vehicle: saline) was 98 % of control, the T/C (dose: 0.79 mg/kg/injection, schedule: Q01DX009 (ip), vehicle: saline) was 104 % of control and the T/C (dose: 1.56 mg/kg/injection, schedule: Q01DX009 (ip), vehicle: saline) was 98 % of control.

In the case of `O=S(=O)(O)O.[Cu+2].[NH-]CCC[N-]CCCC[N-]CCC[NH-]`, the T/C (dose: 6.25 mg/kg/injection, schedule: Q01DX001 (ip), vehicle: saline) is reported as 108 % of control, the T/C (dose: 12.5 mg/kg/injection, schedule: Q01DX001 (ip), vehicle: saline) is reported as 113 % of control and 92 % of control and the T/C (dose: 25.0 mg/kg/injection, schedule: Q01DX001 (ip), vehicle: saline) is reported as 113 % of control. For the same compound, the T/C (dose: 50.0 mg/kg/injection, schedule: Q01DX001 (ip), vehicle: saline) was 106 % of control.

In the case of `O=C(Nc1ccccc1)ON=C(c1ccccc1)c1ccccc1`, the T/C [11] is reported as 97 % of control, the T/C (dose: 200.0 mg/kg/injection, schedule: Q01DX001 (ip), vehicle: saline with Tween-80) is reported as 93 % of control and the T/C (dose: 400.0 mg/kg/injection, schedule: Q01DX001 (ip), vehicle: saline with Tween-80) is reported as 112 % of control.

For `Cc1cc2c(=O)cc(-c3ccc(Cl)cc3)oc2c(C#N)c1C`, the T/C [12] was 89 % of control, the T/C [13] was 93 % of control and the T/C (dose: 240.0 mg/kg/injection, schedule: Q01DX005 (ip), vehicle: Klucel (hydroxypropylcellulose) (HPC)) was 100 % of control.

For `CN(C)c1ccc(N(C)C)c(C(O)(c2ccccc2)c2ccccc2)c1`, the T/C [14] was 88 % of control.

In the case of `Nc1ccc(S(=O)(=O)Nc2c(N)[nH]c(=S)[nH]c2=O)cc1`, the T/C (dose: 15.0 mg/kg/injection, schedule: Q01DX005 (ip), vehicle: Klucel (hydroxypropylcellulose) (HPC)) is reported as 97 % of control, the T/C (dose: 15.0 mg/kg/injection, schedule: Q01DX005 (ip), vehicle: saline with Tween-80) is reported as 115 % of control and the T/C (dose: 30.0 mg/kg/injection, schedule: Q01DX005 (ip), vehicle: Klucel (hydroxypropylcellulose) (HPC)) is reported as 97 % of control. The T/C (dose: 30.0 mg/kg/injection, schedule: Q01DX005 (ip), vehicle: saline with Tween-80) was 105 % of control, the T/C [12] was 92 % of control and the T/C [4] was 98 % of control. For the same compound, the T/C [13] was 100 % of control and the T/C [5] was 100 % of control.

With `c1ccc(CSc2ncnc3n[nH]nc23)cc1` the T/C (dose: 3.12 mg/kg/injection, schedule: Q01DX009 (ip), vehicle: saline) was 100 % of control, the T/C (dose: 6.25 mg/kg/injection, schedule: Q01DX009 (ip), vehicle: saline) was 106 % of control and the T/C (dose: 12.5 mg/kg/injection, schedule: Q01DX009 (ip), vehicle: saline) was 104 % of control. The T/C (dose: 25.0 mg/kg/injection, schedule: Q01DX009 (ip), vehicle: saline) was 100 % of control.

With `CN(C)CCN(C)CC(C)(C)C(=O)/C=C/c1ccc(Cl)c(Cl)c1` the T/C (dose: 3.75 mg/kg/injection, schedule: Q01DX005 (ip), vehicle: saline) was 102 % of control and 107 % of control, the T/C (dose: 7.5 mg/kg/injection, schedule: Q01DX005 (ip), vehicle: saline) was 98 % of control and 95 % of control and the T/C (dose: 15.0 mg/kg/injection, schedule: Q01DX005 (ip), vehicle: saline) was 99 % of control and 100 % of control and 97 % of control. For the same compound, the T/C (dose: 30.0 mg/kg/injection, schedule: Q01DX005 (ip), vehicle: saline) was 101 % of control and 102 % of control.

`COc1cncn2c(C)nnc12` was tested, and the T/C (dose: 50.0 mg/kg/injection, schedule: Q01DX005 (ip), vehicle: saline) was 100 % of control, the T/C [15] was 99 % of control and the T/C (dose: 200.0 mg/kg/injection, schedule: Q01DX005 (ip), vehicle: saline) was 94 % of control.

For `O=C(O)c1ccc(OCCOc2ccccc2)c(Cl)c1`, the T/C [4] was 98 % of control, the T/C [5] was 95 % of control and the T/C [6] was 93 % of control.

`CC1=Cc2cc(C)cc(C)c2C1=O` was tested, and the T/C (dose: 50.0 mg/kg/injection, schedule: Q01DX005 (ip), vehicle: saline with Tween-80) was 90 % of control, the T/C (dose: 100.0 mg/kg/injection, schedule: Q01DX005 (ip), vehicle: saline with Tween-80) was 93 % of control and the T/C (dose: 200.0 mg/kg/injection, schedule: Q01DX005 (ip), vehicle: saline with Tween-80) was 96 % of control.

For `NNC(=O)CNC(=O)Nc1n[nH]c(=S)s1`, the T/C [14] was 101 % of control and the T/C [7] was 95 % of control.

`CC1(C)O[Te]2(OC1(C)C)OC(C)(C)C(C)(C)O2` was tested, and the T/C (dose: 3.12 mg/kg/injection, schedule: Q01DX001 (ip), vehicle: saline with Tween-80) was 100 % of control, the T/C (dose: 6.25 mg/kg/injection, schedule: Q01DX001 (ip), vehicle: saline with Tween-80) was 105 % of control and the T/C [11] was 93 % of control.

With `O=C(N/N=C/c1ccc(O)c(S(=O)(=O)O)c1)C(=O)N/N=C/c1ccc(O)c(S(=O)(=O)O)c1` the T/C [1] was 101 % of control, the T/C [2] was 108 % of control and the T/C [3] was 108 % of control.

`N#Cc1c(-c2ccc(Cl)cc2)c(-c2ccc(Cl)cc2)nn(CCOC(=O)CCC(=O)O)c1=O` was tested, and the T/C (dose: 3.13 mg/kg/injection, schedule: Q01DX005 (ip), vehicle: distilled water + Tween-80) was 100 % of control, the T/C (dose: 6.25 mg/kg/injection, schedule: Q01DX005 (ip), vehicle: distilled water + Tween-80) was 100 % of control and the T/C (dose: 12.5 mg/kg/injection, schedule: Q01DX005 (ip), vehicle: distilled water + Tween-80) was 105 % of control. The T/C (dose: 12.5 mg/kg/injection, schedule: Q01DX005 (ip), vehicle: saline) was 104 % of control, the T/C (dose: 12.5 mg/kg/injection, schedule: Q01DX005 (ip), vehicle: sodium bicarbonate) was 103 % of control and the T/C (dose: 12.5 mg/kg/injection, schedule: Q04DX002 (ip), vehicle: distilled water + Tween-80) was 106 % of control. For the same compound, the T/C (dose: 25.0 mg/kg/injection, schedule: Q01DX005 (ip), vehicle: distilled water + Tween-80) was 114 % of control and 117 % of control, the T/C (dose: 25.0 mg/kg/injection, schedule: Q01DX005 (ip), vehicle: saline) was 112 % of control and the T/C (dose: 25.0 mg/kg/injection, schedule: Q01DX005 (ip), vehicle: sodium bicarbonate) was 112 % of control. The T/C (dose: 25.0 mg/kg/injection, schedule: Q04DX002 (ip), vehicle: distilled water + Tween-80) was 105 % of control and 113 % of control, the T/C (dose: 50.0 mg/kg/injection, schedule: Q01DX005 (ip), vehicle: distilled water + Tween-80) was 172 % of control and 184 % of control and the T/C [15] was 180 % of control. For the same compound, the T/C (dose: 100.0 mg/kg/injection, schedule: Q01DX005 (ip), vehicle: sodium bicarbonate) was 202 % of control and the T/C (dose: 100.0 mg/kg/injection, schedule: Q04DX002 (ip), vehicle: distilled water + Tween-80) was 115 % of control and 92 % of control.

For `CCN(CC)c1ccc2cc(-n3nnc4ccccc43)c(=O)oc2c1`, the T/C [4] was 96 % of control, the T/C [5] was 96 % of control and the T/C [6] was 99 % of control.

With `N#CC1=C(C#N)SCCCS1` the T/C [8] was 100 % of control, the T/C [9] was 100 % of control and the T/C [10] was 99 % of control.
